Data reported in patent US20220064138A1, “MACROLIDE BREFELDIN A ESTER DERIVATIVES AND USE THEREOF” (OCEAN UNIVERSITY OF CHINA, priority 2019, published 2022).
Converted amounts (≈) assume the structure as drawn.

Tests used:
[1] = test system: Human cervical cancer Hela cells; test: Cell proliferation assay (CCK-8); format: cell-based; details: 72 h
Source text: (§1) CCK-8 method: The CCK-8 method is a highly sensitive, non-radioactive colorimetric assay for the determination of the number of viable cells in cell proliferation or cytotoxicity assays. The orange formazan dye produced by the bioreduction of CCK-8 by intracellular dehydrogenase is soluble in the cell culture medium, and the amount of formazan dye produced is proportional to the number of living cells. The kit used in this method is the tetrazolium salt-WST-8 (2-(2-methoxy-4-nitrophenyl)-3-(4-nitrophenyl)-5-(2,4-disulfophenyl)-2H-tetrazolium monosodium salt) developed by Dojindo Chemical Research Institute (Dojindo), which is capable of being reduced to a water-soluble formazan dye in the presence of the electronic carrier 1-Methoxy PMS.
(§2) Human cervical cancer Hela cells, pancreatic cancer PANC-1 cells, esophageal cancer Eca-109 cells, human leukemia K562 cells, human lung cancer A549 cells, human liver cancer HepG2 cells, human gastric cancer MKN-45 cells, human breast cancer MCF7 cells were cultured in DMEM medium containing 10% FBS (fetal bovine serum), 100 U/mL penicillin and 100 μg/ml streptomycin. Hepatocellular carcinoma cells Bel-7402 were cultured in RPMI-1640 medium containing 10% FBS (fetal bovine serum), 100 U/ml penicillin and 100 μg/ml streptomycin. All cells were placed in a cell culture incubator at 37° C. with 5% CO2. Cells fluid was changed every 3-5 days, and after 80% cell fusion, trypsin digestion and passaging were performed to keep the cells in good logarithmic growth phase.
(§3) All the samples to be tested were dissolved in DMSO.
(§4) Cells in logarithmic growth phase were inoculated in 96-well plates with 5000 cells/well respectively, and after 24 h of incubation, samples were added (final concentrations as shown in the table), and biplicate wells were set up for each sample. The amount of solvent of DMSO was not higher than 2‰. After 72 h, 10 μL of CCK-8 solution was added to each well and incubated for 1.5˜3 h at 37° C. The OD value at 450 nm was measured on an plate reader.
(§5) Inhibition rate (%)=(1−[(OD450 dosed well−OD450 blank well)/(OD450 control well−OD450 blank well)])×100%
(§6) The fitted IC50 values were calculated using the log (inhibitor) vs. response-Variable slop analysis method in GraphPad Prism software.

[2] = test system: esophageal cancer Eca-109 cells; test: Cell proliferation assay (CCK-8); format: cell-based; details: Homo sapiens, Eca-109, 72 h
Source text: as §1, §2, §3, §4, §5, §6

[3] = test system: human breast cancer MCF7 cells; test: Cell proliferation assay (CCK-8); format: cell-based; details: MCF7, 72 h
Source text: as §1, §2, §3, §4, §5, §6

[4] = test system: human gastric cancer MKN-45 cells; test: Cell proliferation assay (CCK-8); format: cell-based; details: MKN-45, 72 h
Source text: as §1, §2, §3, §4, §5, §6

[5] = test system: human leukemia K562 cells; test: Cell proliferation assay (CCK-8); format: cell-based; details: K562, 72 h
Source text: as §1, §2, §3, §4, §5, §6

[6] = test system: human liver cancer HepG2 cells; test: Cell proliferation assay (CCK-8); format: cell-based; details: HepG2, 72 h
Source text: as §1, §2, §3, §4, §5, §6

[7] = test system: human lung cancer A549 cells; test: Cell proliferation assay (CCK-8); format: cell-based; details: A549, 72 h
Source text: as §1, §2, §3, §4, §5, §6

[8] = test system: pancreatic cancer PANC-1 cells; test: Cell proliferation assay (CCK-8); format: cell-based; details: Homo sapiens, PANC-1, 72 h
Source text: as §1, §2, §3, §4, §5, §6

[9] = test system: Kunming breed mice; test: Toxicity test after intraperitoneal administration to mice; format: in vivo; details: 14 d; for Deaths: high and low doses (BFA effective amount conversion), ip., mice; for Mental condition of the animals after administration / Results of anatomy: abnormality in organs: male, Kunming, mouse, in vivo, ip
Description: Objective: Observation of toxic effects of compounds after intraperitoneally administration (ip.) to mice
1) Agents: Compounds disclosed herein were formulated to a suitable concentration.
2) Animals: Kunming breed mice, weight 18-22 g, male. Provided by Jinan Pengyue Laboratory Animal Breeding Co., Ltd. Animal license number: SCXK (Shandong 20140007)
Method: Kunming breed mice, were randomly grouped by weight, 6 mice per group, namely normal control group, BFA high and low dose groups (100 mg/kg and 50 mg/kg, respectively), and high and low dose groups of some compounds disclosed herein (BFA effective amount conversion). […] After 14 d of continuous administration, all the animals were weighed, and the animals were executed to observe whether there were any abnormalities in the organs.

[10] = Solubility test (shaking 24 h at 37° C., HPLC)

SMILES	IC50 [1]	IC50 [2]	IC50 [3]	IC50 [4]	IC50 [5]	IC50 [6]	IC50 [7]	IC50 [8]	Deaths [9]	Mental condition of the animals after administration [9]	Results of anatomy: abnormality in organs [9]	solubility at 24 h ([10]; 5% DMSO + 95% H2O)	solubility at 24 h ([10]; acetone)	solubility at 24 h ([10]; methanol)
C[C@H]1CCC/C=C/[C@@H]2C[C@H](OC(=O)/C=C/c3cccc(F)c3)C[C@H]2[C@H](O)/C=C/C(=O)O1 [Compound 1a, 7-O-(3-fluorocinnamic acid)acyl BFA]	1000 to 10000 nM	1000 to 10000 nM	100 to 1000 nM	100 to 1000 nM	100 to 1000 nM	100 to 1000 nM	100 to 1000 nM	100 to 1000 nM	no deaths	good mental condition	no significant abnormality in all organs	0.33 ± 0.13 mg/mL	21.9 ± 1.53 mg/mL (≈ 51.1 mM)	21.3 ± 1.52 mg/mL (≈ 49.8 mM)
C[C@H]1CCC/C=C/[C@@H]2C[C@H](O)C[C@H]2[C@H](OC(=O)/C=C/c2cccc(F)c2)/C=C/C(=O)O1 [Compound 1b, 4-O-(3-fluorocinnamic acid)acyl BFA]	100 to 1000 nM	100 to 1000 nM	100 to 1000 nM	100 to 1000 nM	100 to 1000 nM	100 to 1000 nM	100 to 1000 nM	100 to 1000 nM	no deaths	good mental condition	no significant abnormality in all organs	0.32 ± 0.05 mg/mL	21 ± 1.42 mg/mL (≈ 49.1 mM)	21.1 ± 1.32 mg/mL (≈ 49.3 mM)
C[C@H]1CCC/C=C/[C@@H]2C[C@H](OC(=O)/C=C/c3cccc(F)c3)C[C@H]2[C@H](OC(=O)/C=C/c2cccc(F)c2)/C=C/C(=O)O1 [Compound 1c, 4,7-O-bis(3-fluorocinnamic acid)acyl BFA]	1000 to 10000 nM	1000 to 10000 nM	1000 to 10000 nM	100 to 1000 nM	100 to 1000 nM	1000 to 10000 nM	1000 to 10000 nM	1000 to 10000 nM	no deaths	good mental condition	no significant abnormality in all organs	0.2 ± 0.91 mg/mL	12.1 ± 0.91 mg/mL (≈ 21.1 mM)	12.2 ± 1.59 mg/mL (≈ 21.2 mM)
C[C@H]1CCC/C=C/[C@@H]2C[C@H](OC(=O)/C=C/c3ccc(N(C)C)cc3)C[C@H]2[C@H](O)/C=C/C(=O)O1 [Compound 10a, 7-O-(4-dimethylaminocinnamic acid)acyl BFA]	1000 to 10000 nM	1000 to 10000 nM	100 to 1000 nM	100 to 1000 nM	100 to 1000 nM	1000 to 10000 nM	100 to 1000 nM	1000 to 10000 nM	no deaths	good mental condition	no significant abnormality in all organs	0.75 ± 1.6 mg/mL	25.6 ± 1.74 mg/mL (≈ 56.5 mM)	25.3 ± 4.35 mg/mL (≈ 55.7 mM)
C[C@H]1CCC/C=C/[C@@H]2C[C@H](O)C[C@H]2[C@H](OC(=O)/C=C/c2ccc(N(C)C)cc2)/C=C/C(=O)O1 [Compound 10b, 4-O-(4-dimethylaminocinnamic acid)acyl BFA]	100 to 1000 nM	1000 to 10000 nM	100 to 1000 nM	100 to 1000 nM	100 to 1000 nM	100 to 1000 nM	100 to 1000 nM	100 to 1000 nM	no deaths	good mental condition	no significant abnormality in all organs	0.72 ± 0.13 mg/mL	23.2 ± 1.32 mg/mL (≈ 51.1 mM)	24.2 ± 1.22 mg/mL (≈ 53.3 mM)
C[C@H]1CCC/C=C/[C@@H]2C[C@H](OC(=O)/C=C/c3ccncc3)C[C@H]2[C@H](O)/C=C/C(=O)O1 [Compound 14a, 7-O-(3-(pyridine-4-yl)acrylic acid)acyl BFA]	100 to 1000 nM	1000 to 10000 nM	100 to 1000 nM	100 to 1000 nM	100 to 1000 nM	< 100 nM	100 to 1000 nM	< 100 nM						
C[C@H]1CCC/C=C/[C@@H]2C[C@H](O)C[C@H]2[C@H](OC(=O)/C=C/c2ccncc2)/C=C/C(=O)O1 [Compound 14b]	100 to 1000 nM	1000 to 10000 nM	100 to 1000 nM	100 to 1000 nM	100 to 1000 nM	< 100 nM	100 to 1000 nM	< 100 nM						
C[C@H]1CCC/C=C/[C@@H]2C[C@H](OC(=O)/C=C/c3ccncc3)C[C@H]2[C@H](OC(=O)/C=C/c2ccncc2)/C=C/C(=O)O1 [Compound 14c]	1000 to 10000 nM	1000 to 10000 nM	1000 to 10000 nM	100 to 1000 nM	100 to 1000 nM	100 to 1000 nM	100 to 1000 nM	1000 to 10000 nM						
C[C@H]1CCC/C=C/[C@@H]2C[C@H](OC(=O)/C=C/c3ccccn3)C[C@H]2[C@H](O)/C=C/C(=O)O1 [Compound 15a, 7-O-(3-(pyridine-2-yl)acrylic acid)acyl BFA]	100 to 1000 nM	1000 to 10000 nM	100 to 1000 nM	100 to 1000 nM	100 to 1000 nM	< 100 nM	100 to 1000 nM	< 100 nM						
C[C@H]1CCC/C=C/[C@@H]2C[C@H](O)C[C@H]2[C@H](OC(=O)/C=C/c2ccccn2)/C=C/C(=O)O1 [Compound 15b]	100 to 1000 nM	100 to 1000 nM	100 to 1000 nM	100 to 1000 nM	100 to 1000 nM	< 100 nM	100 to 1000 nM	< 100 nM						
C[C@H]1CCC/C=C/[C@@H]2C[C@H](OC(=O)/C=C/c3ccccn3)C[C@H]2[C@H](OC(=O)/C=C/c2ccccn2)/C=C/C(=O)O1 [Compound 15c]	1000 to 10000 nM	1000 to 10000 nM	100 to 1000 nM	1000 to 10000 nM	100 to 1000 nM	100 to 1000 nM	100 to 1000 nM	100 to 1000 nM						
C[C@H]1CCC/C=C/[C@@H]2C[C@H](O)C[C@H]2[C@H](OC(=O)/C=C/c2cccnc2)/C=C/C(=O)O1 [Compound 16b]	100 to 1000 nM	100 to 1000 nM	100 to 1000 nM	100 to 1000 nM	100 to 1000 nM	< 100 nM	100 to 1000 nM	< 100 nM	no deaths	good mental condition	no significant abnormality in all organs			
C[C@H]1CCC/C=C/[C@@H]2C[C@H](OC(=O)/C=C/c3cccnc3)C[C@H]2[C@H](OC(=O)/C=C/c2cccnc2)/C=C/C(=O)O1 [Compound 16c]	1000 to 10000 nM	1000 to 10000 nM	1000 to 10000 nM	1000 to 10000 nM	100 to 1000 nM	100 to 1000 nM	100 to 1000 nM	100 to 1000 nM	no deaths	good mental condition	no significant abnormality in all organs			
C[C@H]1CCC/C=C/[C@@H]2C[C@H](OC(=O)/C=C/c3cnc4ccccc4c3)C[C@H]2[C@H](O)/C=C/C(=O)O1 [Compound 17a, 7-O-(3-(quinoline-3-yl)acrylic acid)acyl BFA]	100 to 1000 nM	100 to 1000 nM	100 to 1000 nM	100 to 1000 nM	100 to 1000 nM	< 100 nM	100 to 1000 nM	< 100 nM						
C[C@H]1CCC/C=C/[C@@H]2C[C@H](O)C[C@H]2[C@H](OC(=O)/C=C/c2cnc3ccccc3c2)/C=C/C(=O)O1 [Compound 17b]	100 to 1000 nM	100 to 1000 nM	100 to 1000 nM	100 to 1000 nM	100 to 1000 nM	< 100 nM	100 to 1000 nM	< 100 nM						
